In PubChem BioAssay (NCI):
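Values below derive from 48-hour exposures of cells grown in 96-well plates, with endpoints linearly interpolated between the two concentrations bracketing the appropriate inhibition level. Here, GI50 denotes the concentration required for 50% inhibition of growth. TGI: concentration producing complete growth inhibition.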

Assays:
Assay in all cases: NCI anticancer screen, dose series, 48 h
HCC-2998 colon = test system: HCC-2998 colon
HCT-15 colon = test system: HCT-15 colon
KM20L2 colon = test system: KM20L2 colon
M19-MEL melanoma = test system: M19-MEL melanoma
OVCAR-4 ovarian = test system: OVCAR-4 ovarian
OVCAR-5 ovarian = test system: OVCAR-5 ovarian
SF-295 CNS = test system: SF-295 CNS
SK-MEL-2 melanoma = test system: SK-MEL-2 melanoma
DMS 114 small cell lung = test system: DMS 114 small cell lung
786-0 renal = test system: 786-0 renal
MDA-MB-435 = test system: MDA-MB-435

SMILES | TGI (HCC-2998 colon) [µM] | TGI (HCT-15 colon) [µM] | TGI (KM20L2 colon) [µM] | TGI (M19-MEL melanoma) [µM] | TGI (OVCAR-4 ovarian) [µM] | TGI (OVCAR-5 ovarian) [µM] | TGI (SF-295 CNS) [µM] | TGI (SK-MEL-2 melanoma) [µM] | TGI (DMS 114 small cell lung) [µM] | TGI (786-0 renal) [µM] | GI50 (HCC-2998 colon) [µM] | GI50 (HCT-15 colon) [µM] | GI50 (KM20L2 colon) [µM] | GI50 (M19-MEL melanoma) [µM] | GI50 (OVCAR-4 ovarian) [µM] | GI50 (OVCAR-5 ovarian) [µM] | GI50 (SF-295 CNS) [µM] | GI50 (SK-MEL-2 melanoma) [µM] | TGI (MDA-MB-435) [µM]
CC1OC=CC(=O)C1O (configuration not stated) | > 100 | > 100 | > 100 | > 100 | > 100 | > 100 | > 100 | > 100 | – | – | – | – | – | – | – | – | – | – | –
C=C1CC(OC)(C(O)C(=O)N[C@H]2OCO[C@H]3C2O[C@H](C[C@H](O)COC)C(C)(C)C3OC)O[C@H](C)[C@@H]1C (some centres not stated) | > 0.00772 | > 0.00772 | > 0.00772 | > 0.00772 | > 0.00772 | > 0.00772 | > 0.00772 | – | > 0.00772 | – | – | – | – | – | – | – | – | – | –
COc1cccc2c1[C@]1(O)C(O)CCCC21 (some centres not stated) | > 100 | > 100 | > 100 | > 100 | > 100 | > 100 | > 100 | > 100 | > 100 | > 100 | – | – | – | – | – | – | – | – | –
CC1(C)N=C(N)N=C(N)N1c1ccc(OCCCOc2ccccc2)c(Cl)c1 | 13.1 | > 100 | 11.3 | 15 | 14.2 | 10.4 | > 43.7 | 16.9 | 14.3 | – | – | – | – | – | – | – | – | – | –
NC1CCCCC1N.O=S(=O)([O-])CCCN1CCN(CCO)CC1.O=S(=O)([O-])CCCN1CCN(CCO)CC1.[Pt+4] | > 63.4 | > 61.4 | > 100 | 16.2 | 19.2 | > 38.7 | > 100 | 23.4 | – | – | 9.55 | 2.63 | 6.59 | 1.18 | 1.63 | 8.22 | 4.1 | 13.1 | –
CC(=O)Nc1ccc(/C=C(\NC(=O)c2ccccc2)C(=O)NNS(=O)(=O)c2ccc(C)cc2)cc1 | > 100 | 41.1 | > 100 | > 100 | > 100 | > 100 | > 100 | > 100 | – | – | – | – | – | – | – | – | – | – | –
CC(=O)[C@H]1CCC2[C@@H]3CC=C4C(O)C(OS(=O)(=O)O)CC[C@]4(C)C3CC[C@@]21C (some centres not stated) | > 100 | > 100 | > 100 | > 100 | > 100 | > 100 | > 100 | > 100 | > 100 | – | – | – | – | – | – | – | – | – | –
CCOC(=O)C[n+]1ccc2c([nH]c3cc(OC)ccc32)c1C | > 100 | > 100 | > 100 | > 100 | > 100 | > 100 | > 100 | > 100 | > 100 | – | – | – | – | – | – | – | – | – | –
COc1cccc(C2CC(=O)c3cccn32)c1 (configuration not stated) | > 100 | > 100 | – | – | > 100 | > 100 | > 100 | > 100 | – | > 100 | – | – | – | – | – | – | – | – | > 100
COc1cc2c(cc1O)CC[C@@H]1C2CC[C@@]2(C)C1CC[C@@H]2O (some centres not stated) | 34.3 | 49 | – | – | > 100 | > 100 | 16.5 | > 100 | – | > 100 | – | – | – | – | – | – | – | – | 0.927
COc1ccccc1N1C(=O)/C(=C\c2cccc(Oc3ccccc3)c2)S(=O)(=O)C1c1ccccc1 (configuration not stated) | > 100 | > 100 | – | – | > 100 | > 100 | > 100 | 70.5 | – | > 100 | – | – | – | – | – | – | – | – | > 100
C[C@@H]1OCC(O)C([C@H]2OC(c3ccccc3)=N[C@H]2CO)O1 (some centres not stated) | > 100 | > 100 | – | – | > 100 | > 100 | > 100 | > 100 | – | > 100 | – | – | – | – | – | – | – | – | > 100
Cc1cc(C)c2c(c1)CC1(Cc3c(C)cc(C)cc3C1=O)C2=O (configuration not stated) | > 100 | > 100 | – | – | > 100 | > 100 | > 100 | > 100 | – | > 100 | – | – | – | – | – | – | – | – | > 100
